Measurements reported in patent publication US6656955B2, “Pharmaceutical composition having enhanced antitumor activity and/or reduced side effects, containing an antitumor agent and an hydroximic acid derivative” (priority 1997, dated 2003).

Assays:
[1] = tested on: Wistar rats; experiment: Tissue damage: intracellular enzyme release into serum of cisplatin-treated rats; assay type: in vivo, rat; conditions: after two weeks, cisplatin 50 mg/kg daily, compound L 40 mg/kg daily
Experimental: (§1) In vivo experiments with rats. […] The animals were healthy (without any tumor inoculation) at the beginning of the experiment, and the dose of the antitumor compound was provocatively/unusually high which by itself would cause tissue damage with high probability. […] During treatment, cardiac function of animals was followed by ECG, and after two weeks of treatment enzymatic activity in the blood of animals was determined.
Tissue damage was evaluated by measuring intracellular release of enzymes. Enzymatic activity was determined by the method of H. U. Bergmeyer. (Methods in Enzymatic Analysis, 2nd edition, Academic Press (1974)/. The following enzymes were measured:
GOT=glutamate-oxalacetate-transaminase,
GPT=glutamate-piruvate-transaminase,
LDH=lactate dehydrogenase,
LipDH=lipoamide-dehydrogenase,
Enzymatic activity is given in mUnit/m1 serum.

[2] = tested on: Sp-2 (mouse myeloma, suspension) cells; experiment: Surviving tumor cells in cell culture, trypan blue counting; assay type: cell-based; conditions: Sp-2 cells, compound L 40 microgram/ml
Experimental: Experiments with cell culture. Sp-2 (mouse myeloma, suspension) cells were plated on DMEM (Dubelso modified Eagle medium) in the presence of 10% FCS (fetal calf serum). Cells were plated on 96 hole plate with a starting cell number of 10^4/250 μl.
48 hours after treatment, i.e., addition of the above listed compounds, cells in the holes were counted in a method of staining them with 10 microliter of tripaneblue following suspension. Counting was done in B{overscore (u)}rker chamber.
In this case, one portion of cells were plated without the presence of drug, one portion of cells were plated in the presence of 13 microgram/ml fluoroacil, another portion in the presence of 13 microgram/ml fluoroacil+40 microgram/ml compound “L”. Survival rate was examined […] after treatment.

[3] = tested on: P-388 leukemia cells; experiment: Survival of mice inoculated with P-388 leukemia; assay type: in vivo, BDF1 mice; conditions: for Long term Percent survival / Long term Survivors/Total: day 45
Experimental: (§2) In vivo experiments with mice. Single or repeated treatments started on day 1 following transplantation of P-388 or S-180 tumor The therapeutic effectiveness was evaluated on the basis of survival time and tumor volume. The experiments were terminated after 45 days. Long-term survival of mice were not followed beyond 45 days, but the end point was on day 46 following tumor transplantation. The comparative antitumor effect of various treatment groups on the median survival time in days for treated versus control groups was expressed as T/C.
Treatments started 1 day after the i.p. tumor transplantation.

[4] = tested on: Wistar rats; experiment: Cardiac function by ECG in cisplatin-treated rats; assay type: in vivo, rat; conditions: cisplatin 50 mg/kg daily, compound L 40 mg/kg daily
Experimental: as §1
Cardiac function was monitored by AT-6 ECG on all four limbs. QRS, RR, PR and TQ distances and J point depressions were determined.

[5] = tested on: S-180 sarcoma; experiment: Tumor growth inhibition, S-180 solid tumor in mice; assay type: in vivo; conditions: single (FIG. 1) or repeated injections (FIG. 2)
Experimental: as §2
In the case of S-180 solid tumor the tumor growth inhibitory effect of compounds was controlled 3 times for a week using digital caliper. Tumor volume was calculated using the following formula: […]
where “a” and “b” are the shortest and the longest diameter, respectively of a given tumor (Tomayko M. M. and Reynolds C. P.: Determination of subcutaneous tumor size in athymic/nude/mice. Cancer Chemother. Pharmacol, 24, p. 148,1989). Mean values (X) and standard deviations (S.D.) were calculated. The statistically significant difference (p) was determined by Student' t test, where appropriate.

[6] = tested on: Wistar rats; experiment: One month survival after two week treatment of rats; assay type: in vivo; conditions: cisplatin 50 mg/kg daily, compound L 40 mg/kg daily
Experimental: as §1
It was investigated how many percent of animals were still alive following a two week treatment detailed above.

[7] = tested on: BDF1 male mice; experiment: Acute toxicity (survival) in normal mice; assay type: in vivo; conditions: for Survival % / Survivors/Total: 25 days observation
Experimental: In vivo experiments with mice. […] [c.f. Oncology Report (REP/O.O.I./1988/01)]. First generation hybrid BDF1 (C57B1 female×DBA/2 male) adult male mice, weighing 22-24 g, specified pathogen free (SPF) were used for these experiments. The animals were kept in macrolon cages at 22-24° C. (40-50% humidity), with a lighting regimen of 12/12 h light/dark.
The observation period was terminated after 25 days. Of compound “L” doses, the dose of 750 mg/kg body weight, i.p. was lethal (Table 4).

[8] = 48 hours, cisplatin 0.35 microgram/ml
[9] = group 10: CisPt 10 mg/kg i.p., 1 qd
[10] = group 13: CisPt 3 mg/kg i.p., 5 qd
[11] = 40 hours, fluoroacil 13 microgram/ml

For `N.N.[Cl][Pt][Cl]` [Cisplatin, cis-diammine-dichloroplatinum], the “Enzymatic activity CK (creatine-kinase)” value [1] was 9776 mU/ml, the “Enzymatic activity CS (citrate-synthase)” value [1] was 22 mU/ml and the “Enzymatic activity GOT (glutamate-oxalacetate-transaminase)” value [1] was 273 mU/ml. For the same molecule, the “Enzymatic activity GPT (glutamate-piruvate-transaminase)” value [1] was 87 mU/ml, the “Enzymatic activity LDH (lactate dehydrogenase)” value [1] was 5136 mU/ml and the “Enzymatic activity LipDH (lipoamide-dehydrogenase)” value [1] was 69 mU/ml. The “Surviving cell (%)” value [2, 8] was 12 ± 4%, the T/C % [3, 9] was 147.0% and the “Long term Percent survival” value [3, 9] was 29%. The “Long term Survivors/Total” value [3, 9] was 2/7, the “Mean Survival (days)” value ([3]; group 10: CisPt 10 mg/kg i.p., 1 qd, non-long-term survivors (5 mice)) was 16.6 ± 4.6 day⁻¹ and the T/C % [3, 10] was 257.0%. For the same molecule, the “Mean Survival (days)” value ([3]; group 13: CisPt 3 mg/kg i.p., 5 qd, 4 mice) was 29.0 ± 6.1 day⁻¹, the “Long term Percent survival” value [3, 10] was 43% and the “Long term Survivors/Total” value [3, 10] was 3/7. The J point depression [4] was 2.1 ± 0.3 mm, the QRS [4] was 102 ms and the QRS intensity [4] was “fluctuating”. For the same molecule, the “Tumor growth inhibitory effect (tumor growth curves, mean tumor volumes)” value [5] was “significant inhibitory effect” and the “One month survival (%)” value [6] was 25%.

For `O=c1[nH]cc(F)c(=O)[nH]1` [Fluoroacil, 5-fluoro-2,4(1H,3H)pyrimidinedione], the “Surviving cell (%)” value [2, 11] was 13 ± 3%.

For `Cl.Cl.NC(=NOCC(O)CN1CCCCC1)c1cccnc1` (stereo not drawn) [compound “L”, O-(3-piperidino-2-hydroxyl-1-propyl)niconitic acid amidoxime dihydrochloride], the “Toxicity evaluated on the basis of survival” value ([7]; compound L 750 mg/kg body weight, i.p.) was “lethal”, the Survival % ([7]; group 1: 200 mg/kg i.p., 1 qd) was 100% and the Survivors/Total ([7]; group 1: 200 mg/kg i.p., 1 qd) was 7/7. For the same molecule, the Survival % ([7]; group 2: 750 mg/kg i.p., 1 qd) was 0%, the Survivors/Total ([7]; group 2: 750 mg/kg i.p., 1 qd) was 0/7 and the Survival % ([7]; group 3: 2000 mg/kg p.o., 1 qd) was 100%. The Survivors/Total ([7]; group 3: 2000 mg/kg p.o., 1 qd) was 7/7, the Survival % ([7]; group 4: 100 mg/kg i.p., 5 qd) was 100% and the Survivors/Total ([7]; group 4: 100 mg/kg i.p., 5 qd) was 7/7. For the same molecule, the “Toxicity evaluated on the basis of survival” value ([7]; other single compound L treatments (Table 4)) was “no effect on the survival”, the “Surviving cell (%)” value [2, 11] was 51 ± 8% and the “Surviving cell (%)” value [2, 8] was 51 ± 8%.
